# In ChEMBL document CHEMBL2311532, “Identification of benzofuran central cores for the inhibition of leukotriene A(4) hydrolase” (Bioorg Med Chem Lett, 2013):
# Experiments:
# [1] = target: T1, Leukotriene A-4 hydrolase (Homo sapiens, UniProt P09960); assay: Inhibition of recombinant human LTA4H expressed in Sf9 cells using LTA4 as substrate incubated for 10 mins prior to substrate addition measured after 10 to 30 mins by enzyme immunoassay
# T1 sequence (P09960 whole entry): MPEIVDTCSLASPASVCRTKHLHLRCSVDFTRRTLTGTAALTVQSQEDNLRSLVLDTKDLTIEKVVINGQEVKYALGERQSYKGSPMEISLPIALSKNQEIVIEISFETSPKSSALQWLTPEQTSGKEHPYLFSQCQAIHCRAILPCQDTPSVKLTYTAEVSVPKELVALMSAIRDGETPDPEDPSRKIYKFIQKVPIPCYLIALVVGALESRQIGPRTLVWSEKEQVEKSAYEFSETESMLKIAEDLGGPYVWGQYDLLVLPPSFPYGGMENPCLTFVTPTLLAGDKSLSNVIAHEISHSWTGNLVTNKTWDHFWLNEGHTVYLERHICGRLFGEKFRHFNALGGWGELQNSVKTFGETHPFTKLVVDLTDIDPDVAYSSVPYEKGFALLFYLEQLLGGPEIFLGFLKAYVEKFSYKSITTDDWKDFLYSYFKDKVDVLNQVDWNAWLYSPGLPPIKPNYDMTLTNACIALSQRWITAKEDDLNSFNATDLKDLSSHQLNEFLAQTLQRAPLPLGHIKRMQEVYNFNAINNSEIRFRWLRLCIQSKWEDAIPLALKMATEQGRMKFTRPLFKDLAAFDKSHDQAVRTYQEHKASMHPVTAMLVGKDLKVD
# [2] = target: T2, Leukotriene A-4 hydrolase (Mus musculus, UniProt P24527); assay: Inhibition of LTA4H in CD1 mouse whole blood assessed as decrease in calcium ionophore-stimulated LTB4 production incubated for 15 mins prior to calcium ionophore challenge measured after 10 to 30 mins by enzyme immunoassay
# T2 sequence (P24527 whole entry): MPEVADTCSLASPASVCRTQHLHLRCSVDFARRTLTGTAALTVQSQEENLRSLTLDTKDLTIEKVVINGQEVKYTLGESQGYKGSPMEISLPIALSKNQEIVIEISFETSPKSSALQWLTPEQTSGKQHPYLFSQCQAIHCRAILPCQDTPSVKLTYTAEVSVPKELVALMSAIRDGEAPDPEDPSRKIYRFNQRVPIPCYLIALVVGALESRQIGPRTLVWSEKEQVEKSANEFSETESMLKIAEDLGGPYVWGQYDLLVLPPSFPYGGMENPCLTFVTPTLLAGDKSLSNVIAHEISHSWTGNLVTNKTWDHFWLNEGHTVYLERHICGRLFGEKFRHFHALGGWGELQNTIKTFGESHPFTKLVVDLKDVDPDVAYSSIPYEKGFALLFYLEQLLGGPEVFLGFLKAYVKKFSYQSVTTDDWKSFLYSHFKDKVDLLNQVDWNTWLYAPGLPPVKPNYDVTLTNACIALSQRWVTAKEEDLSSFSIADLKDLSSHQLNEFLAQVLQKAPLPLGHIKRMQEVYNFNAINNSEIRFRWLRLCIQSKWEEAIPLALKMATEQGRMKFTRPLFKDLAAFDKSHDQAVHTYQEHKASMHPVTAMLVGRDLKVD
# Mus musculus [3] = assay: Inhibition of LTA4H in po dosed Balb/c mouse assessed as decrease in calcium ionophore-stimulated LTB4 production in blood administered for 4 hrs prior to calcium ionophore challenge measured after 10 to 30 mins by enzyme immunoassay; format: functional
# [4] = Clearance in Sprague-Dawley rat at 3 mg/kg, iv and 10 mg/kg, po; format: ADME, organism-based; details: in vivo
# [5] = Volume of distribution at steady state in Sprague-Dawley rat at 3 mg/kg, iv and 10 mg/kg, po; format: ADME, organism-based; details: in vivo, read-out: Vdss
# [6] = Half life in Sprague-Dawley rat at 3 mg/kg, iv and 10 mg/kg, po; format: ADME, organism-based; details: in vivo
# [7] = Oral bioavailability in Sprague-Dawley rat at 10 mg/kg; format: ADME, organism-based; details: in vivo
# Mus musculus [8] = assay: Inhibition of LTA4H in po dosed Balb/c mouse assessed as concentration required to decrease calcium ionophore-stimulated LTB4 production in blood administered for 4 hrs prior to calcium ionophore challenge measured after 10 to 30 mins by enzyme immunoassay; format: functional, organism-based
# [9] = target: T1, Leukotriene A-4 hydrolase; assay: Inhibition of LTA4H in human whole blood assessed as decrease in LTB4 production
SMILES,IC50 [1],IC50 [2],also measured
CC(=O)N1CC2CC1CN2Cc1coc2cc(Oc3nc4cccnc4s3)ccc12 (centres undefined),300 nM,–,–
O=C1CCCN1C1CCN(CCOc2ccc(Oc3nc4ccccc4s3)cc2)CC1,–,–,ED50 (Mus musculus [3]): 10 mg/kg; clearance [4]: 8.33 mL/min/kg; Vd [5]: 1.1 L/kg; half-life [6]: 0.9 h; bioavailability [7]: 29%; EC50 (Mus musculus [8]): 72 nM
c1ccc2sc(Oc3ccc4oc(CN5CCCCC5)cc4c3)nc2c1,330 nM,–,–
CC(=O)N1CC2CC1CN2Cc1cc2ccc(Oc3nc4cnccc4s3)cc2o1 (centres undefined),2370 nM,–,–
CC(=O)N[C@H]1C[C@H]2CC[C@@H](C1)N2Cc1coc2cc(Oc3nc4ncccc4s3)ccc12,1.6 nM,9.8 nM,–
c1ccc2sc(Oc3ccc4c(CN5CCOCC5)coc4c3)nc2c1,140 nM,1120 nM,–
c1ccc2sc(Oc3ccc4cc(CN5CCCCC5)oc4c3)nc2c1,430 nM,–,–
c1cnc2nc(Oc3ccc4oc(CN5CCCCC5)cc4c3)sc2c1,66 nM,91 nM,–
CC(=O)N1C[C@@H]2C[C@H]1CN2Cc1coc2cc(Oc3nc4ccccc4s3)ccc12,34 nM,250 nM,–
CC(=O)N1CC2CC1CN2Cc1cc2ccc(Oc3nc4cccnc4s3)cc2o1 (centres undefined),2130 nM,–,–
O=C1CCCN1C1CCN(Cc2coc3cc(Oc4nc5ccccc5s4)ccc23)CC1,58 nM,230 nM,–
CC(=O)N[C@H]1C[C@H]2CC[C@@H](C1)N2Cc1coc2cc(Oc3nc4ccccc4s3)ccc12,7.3 nM,69 nM,–
CC(=O)N1CC2CC1CN2Cc1cc2ccc(Oc3nc4ncccc4s3)cc2o1 (centres undefined),62 nM,210 nM,–
CC(=O)N1CC2CC1CN2Cc1coc2cc(Oc3nc4cnccc4s3)ccc12 (centres undefined),340 nM,–,–
CC(=O)N1CC2CC1CN2Cc1cc2cc(Oc3nc4cccnc4s3)ccc2o1 (centres undefined),340 nM,–,–
O=C1CCCN1C1CCN(Cc2coc3cc(Oc4nc5ncccc5s4)ccc23)CC1,–,21 nM,ED50 (Mus musculus [3]): 0.3 mg/kg; inhibition (Mus musculus [3]): Dose-dependent effect; clearance [4]: 11.7 mL/min/kg; Vd [5]: 1.6 L/kg; IC50 [9]: 61 nM; half-life [6]: 2.5 h; bioavailability [7]: 61%; EC50 (Mus musculus [8]): 3 nM
CC(=O)N1CC2CC1CN2Cc1cc2cc(Oc3nc4cnccc4s3)ccc2o1 (centres undefined),340 nM,–,–
c1ccc2sc(Oc3ccc4c(CN5CCCCC5)coc4c3)nc2c1,67 nM,420 nM,–
c1cnc2nc(Oc3ccc4cc(CN5CCCCC5)oc4c3)sc2c1,51 nM,140 nM,–

# More lines, in order of falling IC50 [1], values ahead:
IC50 [1],IC50 [2],SMILES,also measured
26 nM,100 nM,CC(=O)NC1CCN(Cc2coc3cc(Oc4nc5ccccc5s4)ccc23)CC1,–
25 nM,49 nM,c1cnc2nc(Oc3ccc4c(CN5CCOCC5)coc4c3)sc2c1,–
14 nM,19 nM,O=C(O)C1CCN(Cc2coc3cc(Oc4nc5ccccc5s4)ccc23)CC1,–
8.3 nM,280 nM,O=C(O)C1CCN(Cc2coc3cc(Oc4nc5ncccc5s4)ccc23)CC1,–
7.3 nM,21 nM,CC(=O)N1C[C@@H]2C[C@H]1CN2Cc1coc2cc(Oc3nc4ncccc4s3)ccc12,–
7.3 nM,21 nM,CC(=O)N1CC2CC1CN2Cc1coc2cc(Oc3nc4ncccc4s3)ccc12 (centres undefined),–
7 nM,27 nM,CC(=O)N1CC2CC1CN2Cc1cc2cc(Oc3nc4ncccc4s3)ccc2o1 (centres undefined),–
4.6 nM,21 nM,c1cnc2nc(Oc3ccc4c(CN5CCCCC5)coc4c3)sc2c1,–
3.7 nM,17 nM,CC(=O)NC1CCN(Cc2coc3cc(Oc4nc5ncccc5s4)ccc23)CC1,–
